The source of these data is patent US20130324598A1, “TREATING MYCOBACTERIAL INFECTION WITH CU+/++ BOOSTING THERAPEUTICS” (priority 2011, published 2013).

Data set [1] relates to M. tuberculosis (mc^26230). In kind it is cell-based, Mycobacterium tuberculosis.
Data set [2] relates to macrophages. Description: Toxicity of GTSM and ATSM towards macrophages (50% reduction in viability). The class given is cell-based. An excerpt: Fluorescence intensity was a measure of cell viability and was shown as percent of viability of untreated cells that were not exposed to GTSM-Cu or ATSM-Cu. The inhibitory concentration (IC50) was estimated based on the shape of the curve, and indicates the concentration at which a 50% decrease in viability is observed, and the therapeutic index was estimated based on the lethal dose (LD50) of these compounds for macrophages, which indicates a 50% reduction in viability. The LD50 of GTSM towards macrophages, the main residential cell type for M. tuberculosis, is 10 μM. […] The therapeutic index calculates as TI=LD50/IC50

For data set [3] the following is noted: concentrations higher than 10 μM could not be tested.

SMILES strings stand for the structures. Like-named read-outs stand apart in the source and are kept apart here.

With `CNC1=NN=C(C)C(C)=NN=C(NC)[S][Cu][S]1` [ATSM-Cu complex], the “activity against Mycobacterium tuberculosis” value in data set [1] (copper complex, FIG. 5 / FIG. 6) was “active”.
As for `CNC(=S)N/N=C(C)/C(C)=N/NC(=S)NC` [ATSM], the “Mycobacterium tuberculosis cell viability” value in data set [1] was “decreased significantly”. In addition, the toxicity towards macrophages result in data set [2] (up to 10 μM) is given as “did not show any toxicity”. In addition, in data set [3], the solubility entry is recorded as “limited solubility”.
`CNC(=S)NN=CC=NNC(=S)NC` [GTSM]: the “therapeutic index (TD50/IC50; TI=LD50/IC50)” value in data set [1] ([…], copper complex, estimated) is 25. Besides, the “Mycobacterium tuberculosis cell viability” value in data set [1] (complexed with copper, 10 μM copper, fluorescence 12 hours after AlamarBlue addition) is listed as “decreased significantly”. This compound also showed an LD50 towards macrophages in data set [2] (50% reduction in viability of macrophages) of 10 µM.
